{
  "source": "patent US6706509B2",
  "about": "“Oncoprotein protein kinase” (The Regents of the University of California, priority 1993, dated 2004)",
  "tested_on": "JNK1",
  "assay": "Epitope-tagged JNK1 protein kinase activity in transfected COS cells",
  "type": "cell-based",
  "conditions": "10 nM EGF or 100 nM TPA",
  "procedure": "JNK1 protein kinase activity was detected in the immune-complex. Immunecomplex kinase assays using either M2 immunoprecipitates or purified JNK1, JNK-46, and ERK1 or ERK2 were performed at 30° C. for 20 mins using 3 μg of substrate, 20 μM ATP and 5 μCi of [γ-^32P]ATP in 30 μl of kinase buffer (25 mM Hepes (pH 7.6), 20 mM MgCl2, 20 mM β-glycerophosphate, 20 mM p-nitrophenyl phosphate, 0.1 mM Na orthovanadate, 2 mM DTT). The reactions were terminated with Laemmli sample buffer and the products were resolved by SDS-PAGE (12% gel). JNK1 protein activity was also measured after SDS-PAGE by the in-gel kinase assay with the substrate GST-cJun(1-79) as described by Hibi, et al., supra, (1993). Solid-phase protein kinase assays were performed as described by Hibi, et al., supra, (1993). Clarified cell extracts were incubated with GST fusion proteins immobilized on GSH-agarose beads. After 3 hours at 4° C., the beads were washed extensively and bound JNK1 was detected by the addition of [γ-^32P]ATP. The reaction was terminated after 10 mins at 30° C. and the products were resolved by SDS-PAGE. The incorporation of [^32P]phosphate was visualized by autoradiography and quantitated with a phosphorimager and ImageQuant software (Molecular Dynamics Inc., Sunnyvale, Calif.). The methods used for phosphopeptide mapping (Boyle, et al., Cell 64:573-584, 1991) and phosphoamino acid analysis (Alvarez, et al., J. Biol. Chem 266:15227-15285, 1991) were described previously.\nEpitope-tagged JNK1 was expressed in COS cells. Control experiments were performed using mock-transfected cells. After 48 hours, the cells were treated either without or with 100 nM TPA, 10 nM EGF, or 80 J/m^2 UV-C and incubated for 1 hr. The cells were lysed in RIPA buffer and the JNK1 proteins were isolated by immunoprecipitation with the M2 monoclonal antibody. JNK1 protein kinase activity was measured after SDS-PAGE using an in-gel kinase assay with the substrate GST-cJun(1-79) polymerized into the gel.\nCOS-1 cells were maintained in. Dulbecco's modified Eagle's medium supplemented with 5% […] (Gibco-BRL). Metabolic labeling with [^32P]phosphate was performed by incubation of cells in phosphate-free modified Eagle's medium (Flow Laboratories Inc.) supplemented with 0.1% fetal bovine serum and 1 mCi/ml [^32P]orthophosphate (Dupont-NEN). COS cells were treated with 10 nM EGF or 100 nM thorbol myristate acetate. The cells were then incubated for defined times at 37° C. prior to harvesting and measurement of JNK1 protein kinase activity. The data are presented as arbitrary units. […] In contrast, exposure to UV radiation caused a marked increase in JNK1 activity.",
  "data": [
    {"smiles": "CCCCCCCCCCCCCC(=O)O[C@@H]1[C@@H](C)[C@@]2(O)[C@@H](C=C(CO)C[C@]3(O)C(=O)C(C)=C[C@@H]23)[C@H]2C(C)(C)[C@]12OC(C)=O", "note": "[TPA]", "values": [
      {"measurement": "JNK1 activation", "value": "low level of JNK1 activation"},
      {"measurement": "duration of JNK1 activation", "value": "approximately 2 hours"}
    ]}
  ]
}
